Results reported in US7524847B2, “Fused 1,3-dihydro-imidazole ring compounds” (Eisai R&D Management Co., Ltd., priority 2002, dated 2009).

Tests used:
[1] = target: T1, DPP-IV obtained from pig kidney (Sus scrofa, UniProt P22411); test: Measurement of DPPIV-inhibiting activity (in vitro experiment); assay type: biochemical; settings: DPP-IV from pig kidney 10 mU/mL, substrate Gly-Pro-p-nitroanilide 0.33 mM, 20 min preincubation, 20 min reaction, absorbance 405 nm
T1 construct: DPP-IV obtained from pig kidney; from tissue; host or cells: pig kidney
T1 sequence (P22411 whole entry): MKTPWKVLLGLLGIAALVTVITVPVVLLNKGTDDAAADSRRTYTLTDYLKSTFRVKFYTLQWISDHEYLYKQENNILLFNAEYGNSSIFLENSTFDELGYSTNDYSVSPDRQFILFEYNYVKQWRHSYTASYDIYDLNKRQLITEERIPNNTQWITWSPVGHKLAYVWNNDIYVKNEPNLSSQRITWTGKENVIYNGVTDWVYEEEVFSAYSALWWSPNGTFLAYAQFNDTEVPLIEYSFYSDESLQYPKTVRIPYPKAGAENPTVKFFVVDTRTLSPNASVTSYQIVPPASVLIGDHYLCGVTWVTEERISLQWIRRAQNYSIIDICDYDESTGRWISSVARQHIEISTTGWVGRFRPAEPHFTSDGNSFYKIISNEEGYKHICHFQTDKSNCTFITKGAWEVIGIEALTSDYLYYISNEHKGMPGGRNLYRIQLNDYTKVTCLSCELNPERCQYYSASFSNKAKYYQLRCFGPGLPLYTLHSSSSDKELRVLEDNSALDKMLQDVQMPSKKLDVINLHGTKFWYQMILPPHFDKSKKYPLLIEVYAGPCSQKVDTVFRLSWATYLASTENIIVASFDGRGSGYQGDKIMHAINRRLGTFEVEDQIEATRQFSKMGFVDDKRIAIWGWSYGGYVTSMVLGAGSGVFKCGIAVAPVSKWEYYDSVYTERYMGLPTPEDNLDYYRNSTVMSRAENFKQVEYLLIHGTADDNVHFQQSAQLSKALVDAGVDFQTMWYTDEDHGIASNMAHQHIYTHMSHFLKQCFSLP
Experimental: DPP-IV obtained from pig kidney was dissolved in a reaction buffer (50 mM Tris-HCl pH7.4, 0.1% BSA) at 10 mU/mL, and 110 μL of this was used. 15 μL of the drug obtained from the aforementioned Examples was added, and this was incubated at room temperature for 20 minutes, and then 25 μL of a 2 mM solution of Gly-Pro-p-nitroanilide (final concentration 0.33 mM) was added to start the enzymatic reaction. The reaction time was 20 minutes, and 1 N phosphoric acid solution (25 μL) was added to stop the reaction.

[2] = tested on: normal mice (male C57BL/6N); test: Effects on glucose tolerance in normal mice (in vivo experiment); settings: 1 mg/kg oral, 30 min before oral glucose 2 g/kg; blood glucose AUC0-120; 0.5% MC group = 100%, NVP DPP728 (10 mg/kg) group = 0%; lower = better
Experimental: Animals: Male C57BL/6N mice (purchased from Japan Charles River) The test compounds were suspended in a 0.5% methylcellulose (MC) solution at the doses indicated below in Table 2. These test compounds and the NVP DPP728 (U.S. Pat. No. 6,011,155) suspension, or the 0.5% MC solution (the solvent control group), were administered orally at a dose of 10 mL/kg. 30 minutes later, a glucose solution was orally administered at a dose of 10 mL/kg. Glucose was orally administered at a dose of 2 g/kg. The tail vain of unanesthetized mice was cut with a razor blade to cause a small amount of bleeding immediately before administering the test substances or NVP DPP728, and immediately before, as well as 30, 60, and 120 minutes after, administration of the glucose solution. 10 μL of blood was collected, and this was mixed immediately with 0.6 M perchloric acid (140 μL). Glucose present in the supernatant obtained by centrifugation (1500 g, 10 minutes, 4° C., refrigerated centrifuge GS-6KR, Beckman) was measured using Glucose CII Test Wako (Wako Pure Chemicals). Results: In each of the groups to which 0.5% MC solution, NVP DPP728, and the test compounds were administered, the area under the curve of blood glucose vs. time was calculated over 0 to 120 minutes from the time of glucose administration (AUC0-120). Defining the AUC0-120 for the 0.5% MC solution-administered group as 100%, and the AUC0-120 for the NVP DPP728 (10 mg/kg)-administered group as 0%, the degree of improvement in glucose tolerance due to the test compound was calculated by the following equation: Degree of improvement in glucose tolerance (%)=(AUC0-120 of the test compound−AUC0-120 of the NVP DPP728 (10 mg/kg)-administered group)/(AUC0-120 of the 0.5% MC solution-administered group−AUC0-120 of the NVP DPP728 (10 mg/kg)-administered group)×100 The lower the % value, the better the degree of improvement in glucose tolerance.

SMILES	IC50 [1]	Degree of improvement in glucose tolerance (%) [2]
CC#CCn1c(=O)n(C)c2nc(OCC)nc(N3CCNCC3)c21.O=C(O)C(F)(F)F [Example 10, 7-(2-Butynyl)-2-ethoxy-9-methyl-6-(piperazin-1-yl)-7,9-dihydropurin-8-one trifluoroacetic acid salt]	251 nM	17.3%
C=CCOc1nc(N2CCNCC2)c2c(n1)n(C)c(=O)n2CC#CC.O=C(O)C(F)(F)F [Example 15, 2-Allyloxy-7-(2-butynyl)-9-methyl-6-(piperazin-1-yl)-7,9-dihydropurin-8-one trifluoroacetic acid salt]	319 nM	46%
C=CCn1c(=O)n(CC#CC)c2c(N3CCNCC3)nc(OC)nc21.O=C(O)C(F)(F)F [Example 47, 9-Allyl-7-(2-butynyl)-2-methoxy-6-(piperazin-1-yl)-7,9-dihydropurin-8-one trifluoroacetic acid salt]	167 nM	11.6%
CC#CCn1c(=O)n(CC2CC2)c2nc(OC)nc(N3CCNCC3)c21.O=C(O)C(F)(F)F [Example 51, 7-(2-Butynyl)-9-cyclopropylmethyl-2-methoxy-6-(piperazin-1-yl)-7,9-dihydropurin-8-one trifluoroacetic acid salt]	130 nM	59.3%
CC#CCn1c(=O)n(CCC)c2nc(OC)nc(N3CCNCC3)c21.O=C(O)C(F)(F)F [Example 52, 7-(2-Butynyl)-2-methoxy-6-(piperazin-1-yl)-9-propyl-7,9-dihydropurin-8-one trifluoroacetic acid salt]	175 nM	29.7%
CC#CCn1c(=O)n(-c2ccccc2)c2nc(OC)nc(N3CCNCC3)c21.O=C(O)C(F)(F)F [Example 54, 7-(2-Butynyl)-2-methoxy-9-phenyl-6-(piperazin-1-yl)-7,9-dihydropurin-8-one trifluoroacetic acid salt]	88.8 nM	24.4%
CC#CCn1c(=O)n(-c2ccoc2)c2nc(OC)nc(N3CCNCC3)c21.O=C(O)C(F)(F)F [Example 56, 7-(2-Butynyl)-9-(furan-3-yl)-2-methoxy-6-(piperazin-1-yl)-7,9-dihydropurin-8-one trifluoroacetic acid salt]	96.4 nM	11.3%
C=CCn1c(=O)n(CC#CC)c2c(N3CCNCC3)ncnc21.O=C(O)C(F)(F)F [Example 69, 9-Allyl-7-(2-butynyl)-6-(piperazin-1-yl)-7,9-dihydropurin-8-one trifluoroacetic acid salt]	224 nM	44.1%

Compounds with a lower IC50 [1], results first:

IC50 [1]	SMILES	Degree of improvement in glucose tolerance (%) [2]
71.6 nM	CC#CCn1c(=O)n(CC#CC)c2c(N3CCNCC3)nc(OC)nc21.O=C(O)C(F)(F)F [Example 48, 7,9-Di-(2-butynyl)-2-methoxy-6-(piperazin-1-yl)-7,9-dihydropurin-8-one trifluoroacetic acid salt]	37.4%
61.9 nM	CC#CCn1c(=O)n(-c2cccnc2)c2ncnc(N3CCNCC3)c21.O=C(O)C(F)(F)F [Example 61, 7-(2-Butynyl)-6-(piperazin-1-yl)-9-(pyridin-3-yl)-7,9-dihydropurin-8-one trifluoroacetic acid salt]	9.4%
42.6 nM	CC#CCn1c(=O)n(-c2cccnc2)c2nc(Cl)nc(N3CCNCC3)c21.O=C(O)C(F)(F)F [Example 46, 7-(2-Butynyl)-2-chloro-6-(piperazin-1-yl)-9-(pyridin-3-yl)-7,9-dihydropurin-8-one trifluoroacetic acid salt]	37%
32.5 nM	CC#CCn1c(=O)n(-c2cnc(OC)nc2)c2ncnc(N3CCNCC3)c21.O=C(O)C(F)(F)F [Example 64, 7-(2-Butynyl)-9-(2-methoxy-pyrimidin-5-yl)-6-(piperazin-1-yl)-7,9-dihydropurin-8-one trifluoroacetic acid salt]	−11.4%
24.7 nM	CC#CCn1c(=O)n(C)c2nc(Oc3ccccc3C#N)nc(N3CCNCC3)c21.O=C(O)C(F)(F)F [Example 13, 2-[7-(2-Butynyl)-9-methyl-8-oxo-6-(piperazin-1-yl)-8,9-dihydro-7H-purin-2-yloxy]benzonitrile trifluoroacetic acid salt]	33.5%
16.7 nM	CC#CCn1c(=O)n(-c2ccnc(Cl)c2)c2ncnc(N3CCNCC3)c21.O=C(O)C(F)(F)F [Example 65, 7-(2-Butynyl)-9-(2-chloro-pyridin-4-yl)-6-(piperazin-1-yl)-7,9-dihydropurin-8-one trifluoroacetic acid salt]	9.5%
